Experiments:
Type in all cases: cell-based
E. coli DH5α = assay: Antibacterial activity: MIC and growth curve against E. coli DH5α in 96-well plate; settings: minimal inhibitory concentration against E. coli DH5α; 96-well plate, 5×10^5 CFU/mL, 37° C., judged after 8 h
Outline: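 MIC taken as lowest protein level with no bacterial growth, tracked by A600 every 30 min during 37 °C, 175 rpm culture. Two-fold protein series 50-12.5 μg/mL final, triplicate wells, against 5×10^5 CFU/mL of LB-washed mid-log cells.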

E. coli BL21 = assay: MIC against Gram-negative bacteria: E. coli BL21; settings: 5×10^5 CFU/mL
Outline: (§1)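 Two-fold serial dilutions of each purified human EGF domain protein, three replicate wells per level, were combined with bacteria at a final 5×10^5 CFU/mL in LB. Cultures were shaken at 175 rpm, 37° C. The MIC was taken as the minimum concentration preventing growth.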

Pseudomonas aeruginosa = assay: MIC against Gram-negative bacteria: Pseudomonas aeruginosa; settings: 5×10^5 CFU/mL; for MIC against P. aeruginosa: Pseudomonas aeruginosa
Outline: as §1

Klebsiella pneumonia = assay: MIC against Gram-negative bacteria: Klebsiella pneumonia; settings: 5×10^5 CFU/mL; for MIC against K. pneumonia: Klebsiella pneumonia
Outline: as §1

Enterobacter cloacae = assay: MIC against Gram-negative bacteria: Enterobacter cloacae; settings: 5×10^5 CFU/mL; for MIC against E. cloacae: Enterobacter cloacae
Outline: as §1

Aeromonas hydrophila = assay: MIC against Gram-negative bacteria: Aeromonas hydrophila; settings: 5×10^5 CFU/mL; for MIC against A. hydrophila: Aeromonas hydrophila
Outline: as §1

Citrobacter diversus = assay: MIC against Gram-negative bacteria: Citrobacter diversus; settings: 5×10^5 CFU/mL; for MIC against C. diversus: Citrobacter diversus
Outline: as §1

Moraxella catarrhalis = assay: MIC against Gram-negative bacteria: Moraxella catarrhalis; settings: 5×10^5 CFU/mL; for MIC against M. catarrhalis: Moraxella catarrhalis
Outline: as §1

Proteus mirabilis = assay: MIC against Gram-negative bacteria: Proteus mirabilis; settings: 5×10^5 CFU/mL; for MIC against P. mirabilis: Proteus mirabilis
Outline: as §1

Proteus vulgaris = assay: MIC against Gram-negative bacteria: Proteus vulgaris; settings: 5×10^5 CFU/mL; for MIC against P. vulgaris: Proteus vulgaris
Outline: as §1

Serratia marcescens = assay: MIC against Gram-negative bacteria: Serratia marcescens; settings: 5×10^5 CFU/mL; for MIC against S. marcescens: Serratia marcescens
Outline: as §1

[1] = E. coli BL21, 10 h cultivation at 37° C.
[2] = 10 h cultivation at 37° C., two-fold serial dilution

PRT673 (DVDECLDESNCRNGVCENTRGGYRCACTPPAEYSPAQRQCL; listed as Homo sapiens)
12.5 µg/mL: MIC E. coli BL21 (E. coli BL21; 96-well plate, 37° C., 10 h) | MIC P. vulgaris (Proteus vulgaris; 96-well plate, 37° C., 10 h)
25 µg/mL: MIC E. cloacae (Enterobacter cloacae; 96-well plate, 37° C., 10 h) | MIC C. diversus (Citrobacter diversus; 96-well plate, 37° C., 10 h) | MIC M. catarrhalis (Moraxella catarrhalis; 96-well plate, 37° C., 10 h)
50 µg/mL: MIC (E. coli DH5α) | MIC P. aeruginosa (Pseudomonas aeruginosa; 96-well plate, 37° C., 10 h) | MIC K. pneumonia (Klebsiella pneumonia; 96-well plate, 37° C., 10 h) | MIC A. hydrophila (Aeromonas hydrophila; 96-well plate, 37° C., 10 h) | MIC P. mirabilis (Proteus mirabilis; 96-well plate, 37° C., 10 h) | MIC S. marcescens (Serratia marcescens; 96-well plate, 37° C., 10 h)

PRT1396 (LGADCAKAACPVLCSGNGQYSKGTCQCYSGWKGAECD; listed as Homo sapiens)
12.5 µg/mL: MIC (E. coli DH5α) | MIC against E. coli BL21 (E. coli BL21; [1]) | MIC against P. aeruginosa (Pseudomonas aeruginosa; 10 h cultivation at 37° C.) | MIC against K. pneumonia (Klebsiella pneumonia; 10 h cultivation at 37° C.) | MIC against C. diversus (Citrobacter diversus; 10 h cultivation at 37° C.) | MIC against P. mirabilis (Proteus mirabilis; 10 h cultivation at 37° C.) | MIC against S. marcescens (Serratia marcescens; 10 h cultivation at 37° C.)
25 µg/mL: MIC against E. cloacae (Enterobacter cloacae; 10 h cultivation at 37° C.) | MIC against A. hydrophila (Aeromonas hydrophila; 10 h cultivation at 37° C.) | MIC against M. catarrhalis (Moraxella catarrhalis; 10 h cultivation at 37° C.) | MIC against P. vulgaris (Proteus vulgaris; 10 h cultivation at 37° C.)

PRT1106 (NTDECASQPCLHGGLCVDGENRYSCNCTGSGFTGTHCE; listed as Homo sapiens)
12.5 µg/mL: MIC P. aeruginosa (Pseudomonas aeruginosa; [2]) | MIC A. hydrophila (Aeromonas hydrophila; [2]) | MIC P. vulgaris (Proteus vulgaris; [2])
50 µg/mL: MIC E. cloacae (Enterobacter cloacae; [2]) | MIC M. catarrhalis (Moraxella catarrhalis; [2]) | MIC S. marcescens (Serratia marcescens; [2])
25 µg/mL: MIC (E. coli DH5α) | MIC E. coli BL21 (E. coli BL21; [2]) | MIC K. pneumonia (Klebsiella pneumonia; [2]) | MIC C. diversus (Citrobacter diversus; [2]) | MIC P. mirabilis (Proteus mirabilis; [2])

PRT1448 (ACREGRFGQSCQEQCPGISGCRGLTFCLPDPYGCSCGSGWRGSQCQ; listed as Homo sapiens)
50 µg/mL: MIC against E. coli BL21 (E. coli BL21; [1]) | MIC against E. cloacae (Enterobacter cloacae; 10 h cultivation at 37° C.) | MIC against M. catarrhalis (Moraxella catarrhalis; 10 h cultivation at 37° C.)
25 µg/mL: MIC (E. coli DH5α) | MIC against K. pneumonia (Klebsiella pneumonia; 10 h cultivation at 37° C.) | MIC against C. diversus (Citrobacter diversus; 10 h cultivation at 37° C.) | MIC against P. mirabilis (Proteus mirabilis; 10 h cultivation at 37° C.) | MIC against S. marcescens (Serratia marcescens; 10 h cultivation at 37° C.)
12.5 µg/mL: MIC against P. aeruginosa (Pseudomonas aeruginosa; 10 h cultivation at 37° C.) | MIC against A. hydrophila (Aeromonas hydrophila; 10 h cultivation at 37° C.) | MIC against P. vulgaris (Proteus vulgaris; 10 h cultivation at 37° C.)

PRT195 (MGYNCNATTKCKGKGICNNFGNCQCFPGHRPPDCK; listed as Homo sapiens)
50 µg/mL: MIC (μg/mL) P. aeruginosa (Pseudomonas aeruginosa; P. aeruginosa, 10 h cultivation at 37° C.) | MIC (μg/mL) K. pneumonia (Klebsiella pneumonia; K. pneumonia, 10 h cultivation at 37° C.) | MIC (μg/mL) A. hydrophila (Aeromonas hydrophila; A. hydrophila, 10 h cultivation at 37° C.) | MIC (μg/mL) P. mirabilis (Proteus mirabilis; P. mirabilis, 10 h cultivation at 37° C.)
12.5 µg/mL: MIC (μg/mL) E. coli BL21 (E. coli BL21; [1]) | MIC (μg/mL) E. cloacae (Enterobacter cloacae; E. cloacae, 10 h cultivation at 37° C.) | MIC (μg/mL) C. diversus (Citrobacter diversus; C. diversus, 10 h cultivation at 37° C.) | MIC (μg/mL) S. marcescens (Serratia marcescens; S. marcescens, 10 h cultivation at 37° C.)
25 µg/mL: MIC (E. coli DH5α) | MIC (μg/mL) M. catarrhalis (Moraxella catarrhalis; M. catarrhalis, 10 h cultivation at 37° C.) | MIC (μg/mL) P. vulgaris (Proteus vulgaris; P. vulgaris, 10 h cultivation at 37° C.)
